Results reported in PubChem BioAssay (NCI).
Values joined by “and” are separate entries in the source; they are usually repeats but may differ in a detail not shown here. Equal values may be shown once.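 Cells were grown in 96-well plates and exposed to each compound for 48 hours at five concentrations; endpoints were interpolated linearly between bracketing concentrations, or set to the highest concentration if not reached. Abbreviation: GI50, concentration required for 50% inhibition of growth. TGI denotes the concentration required for complete inhibition of growth.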

What was measured:
Test in all cases: growth of human tumour cells (NCI), 48 h
[1] = system: MDA-MB-468 breast
[2] = system: A498 renal
[3] = system: TK-10 renal
[4] = system: IGROV1 ovarian
[5] = system: UO-31 renal
[6] = system: ACHN renal
[7] = system: K-562 leukemia
[8] = system: MOLT-4 leukemia
[9] = system: M14 melanoma
[10] = system: HS 578T breast
[11] = system: NCI-H522 lung
[12] = system: A549 NSCLC
[13] = system: NCI/ADR-RES ovarian
[14] = system: DU-145 prostate
[15] = system: LOX IMVI melanoma
[16] = system: SF-295 CNS
[17] = system: CAKI-1 renal
[18] = system: EKVX NSCLC
[19] = system: RPMI-8226 leukemia
[20] = system: SK-OV-3 ovarian
[21] = system: HL-60(TB) leukemia
[22] = system: UACC-62 melanoma
[23] = system: UACC-257 melanoma
[24] = system: CCRF-CEM leukemia
[25] = system: MALME-3M melanoma
[26] = system: COLO 205 colon
[27] = system: SR leukemia
[28] = system: RXF 393 renal
[29] = system: HCC-2998 colon
[30] = system: SN12C renal
[31] = system: T-47D breast
[32] = system: OVCAR-5 ovarian
[33] = system: BT-549 breast
[34] = system: 786-0 renal
[35] = system: NCI-H226 lung
[36] = system: SK-MEL-5 melanoma

In the case of `C=C1C(=O)O[C@H]2[C@H]1CC/C(CNS(=O)(=O)c1cccc3ccccc13)=C\CC[C@@]1(C)O[C@@H]21`, the GI50 [1] is reported as 1090 nM and the TGI [1] is reported as 3.15 µM.
`O=C(/C=C/c1ccc(C(F)(F)F)cc1)c1ccc(Nc2nc(NCCO)nc(N3CCOCC3)n2)cc1` showed a GI50 [1] of 1800 nM and a TGI [1] of 3.86 µM.
`CN1CCn2c(c(Sc3ccc(C(=O)NO)cc3)c3ccccc32)C1=O` showed a GI50 [1] of 1430 nM and a TGI [1] of 3.25 µM.
Compound `COc1ccc2c(c1)OC(N)=C(C#N)C2c1ccc(F)cc1` (centres undefined) has a GI50 [1] of 401 nM and a TGI [1] of 33.9 µM.
Work on `CCOC(=O)C#Cc1c(CC(=O)OCC)nnn1[C@H]1O[C@@H](CO)[C@@H]2OC(C)(C)O[C@@H]21` yielded a GI50 [1] of 2090 nM and a TGI [1] of 4.5 µM.
`Cc1nn(-c2nc3ccccc3[nH]2)c2c1C(c1ccc3c(c1)OCO3)CC(=O)N2` (centres undefined) showed a GI50 [1] of 2320 nM and a TGI [1] of 6.76 µM.
With `Cc1ccc(S(=O)(=O)Nc2nc3ccccc3nc2Nc2ccc3nsnc3c2)cc1` the GI50 [1] was 3060 nM and 2660 nM and the TGI [1] was 13.5 µM and 9.26 µM.
For `CN(C)c1ccc(O)c2c1C[C@H]1C[C@H]3[C@H](N(C)C)C(=O)C(C(N)=O)=C(O)[C@@]3(O)C(=O)C1=C2O`, the GI50 [1] was 3240 nM and the TGI [1] was 35.1 µM.
For `COCCNC(=O)c1ccc(-c2nc3ccc4[nH]ncc4c3c3c2CCCC3)cc1`, the GI50 [1] was 2460 nM and the TGI [1] was 50 µM.
With `Oc1ccc(N=Nc2ccc(N=Nc3ccccc3)cc2)cc1` the GI50 [1] was 4410 nM and the TGI [1] was 19.6 µM.
With `COC(=O)[C@@H](C)C[C@H](Cc1ccccc1)NC(=O)c1csc([C@@H](C[C@H](C(C)C)N(C)C(=O)C2(NC(=O)[C@H]3CCCCN3C)CC2)OC(C)=O)n1` the GI50 [1] was 2.51 nM.
Compound `O=C(CCCCCCC(=O)Nc1ccc2c(c1)/C(=C/c1ccc[nH]1)C(=O)N2)NO` has a GI50 [1] of 187 nM and a TGI [1] of 2.09 µM.
`Clc1ccc2c(c1)-c1ccccc1C1=NCCN12` was tested, and the GI50 [1] was 1540 nM and the TGI [1] was 3.15 µM.
For `C=C1CC[C@@H]2[C@](C)(COC(C)=O)[C@H](OC(C)=O)CC[C@@]2(C)[C@@H]1C/C=C1/C(=O)OC[C@H]1OC(C)=O`, the GI50 [1] was 2040 nM and the TGI [1] was 5.69 µM.
`OC(CNc1ccnc2cc(Cl)ccc12)CNC1CCCCC1` (centres undefined) gave a GI50 [1] of 1700 nM and a TGI [1] of 3.79 µM.
In the case of `C=CC(=O)Nc1cccc(C)c1Nc1ncc2cc(-c3c(Cl)c(OC)cc(OC)c3Cl)ccc2n1`, the GI50 [1] is reported as 1870 nM and the TGI [1] is reported as 6.28 µM.
Compound `NCCCCN(Cc1nc2ccccc2[nH]1)[C@H]1CCCc2cccnc21` has a GI50 [1] of 10400 nM and a TGI [1] of 30.8 µM.
In the case of `N=C(N)c1ccc(-c2ccc(-c3cccs3)s2)nc1`, the GI50 [1] is reported as 73.2 nM and the TGI [1] is reported as 0.779 µM.
`CCCN(CCC)C(=O)[C@H](CC)[C@@H]1CC[C@@H](C)[C@@H]([C@H](C)[C@@H](O)[C@@H](C)C(=O)[C@H](CC)C2O[C@]3(C=C[C@@H](O)[C@]4(CC[C@@](C)([C@H]5CC[C@](O)(CC)[C@H](C)O5)O4)O3)[C@H](C)C[C@@H]2C)O1` (some centres undefined) was tested, and the GI50 [1] was 1720 nM and the TGI [1] was 5.33 µM.
`O=Cc1ccc(O)c2ncccc12` was tested, and the GI50 [1] was 4140 nM and the TGI [1] was over 100 µM.
`CCCCCN(CCCCC)CC(O)c1cc2c(c3ccccc13)CCCC2` (centres undefined) was tested, and the GI50 [1] was 4340 nM and 12200 nM and the TGI [1] was 17.2 µM and 28 µM.
For `COc1cccc2c(=O)c3c(sc12)c(NCCN(C)C)nc1ccccc13`, the GI50 [1] was 1500 nM and the TGI [1] was 3.15 µM.
`CS(=O)(=O)Nc1cc(-c2ccc3ncnc(Nc4ccc5c(cnn5Cc5ccccc5F)c4)c3c2)cnc1Cl` gave a GI50 [1] of 609 nM and a TGI [1] of 2.56 µM.
With `CCCCCCCCCCCC[n+]1ccc(C(N)=O)cc1` the GI50 [1] was 633 nM and the TGI [1] was 2.92 µM.
For `COc1ccc2nc(C)cc(Nc3ccccc3O)c2c1`, the GI50 [1] was 13800 nM and the TGI [1] was 45.6 µM.
Compound `CC1=C(CCC=O)C2=C(C)C3(CC3)[C@@](C)(O)C(=O)C2=C1` has a GI50 [1] of 100 nM, a TGI [1] of 0.239 µM and a GI50 [2] of 269 nM. The TGI [2] was 616 nM, the GI50 [3] was 218 nM and the TGI [3] was 1080 nM. It also gave a GI50 [4] of 62.5 nM, a TGI [4] of 312 nM and a GI50 [5] of 53.4 nM. The TGI [5] was 263 nM, the GI50 [6] was 78.9 nM and the TGI [6] was 636 nM. For the same compound, the GI50 [7] was 330 nM, the GI50 [8] was 380 nM and the GI50 [9] was 101 nM. For the same compound, the TGI [9] was 254 nM, the GI50 [10] was 302 nM and the TGI [10] was 1280 nM. The GI50 [11] was 167 nM, the TGI [11] was 369 nM and the GI50 [12] was 159 nM. It also gave a TGI [12] of 4.21 µM, a GI50 [13] of 104 nM and a TGI [13] of 330 nM. For the same compound, the GI50 [14] was 37.6 nM, the TGI [14] was 845 nM and the GI50 [15] was 140 nM. It also gave a TGI [15] of 350 nM, a GI50 [16] of 222 nM and a TGI [16] of 1110 nM. The GI50 [17] was 123 nM, the TGI [17] was 855 nM and the GI50 [18] was 210 nM. The TGI [18] was 546 nM, the GI50 [19] was 444 nM and the TGI [19] was over 100 µM. It also gave a GI50 [20] of 108 nM, a TGI [20] of 606 nM and a GI50 [21] of 118 nM. The GI50 [22] was 158 nM, the TGI [22] was 315 nM and the GI50 [23] was 208 nM. The TGI [23] was 464 nM, the GI50 [24] was 756 nM and the TGI [24] was over 100 µM. It also gave a GI50 [25] of 135 nM, a TGI [25] of 266 nM and a GI50 [26] of 144 nM. For the same compound, the TGI [26] was 303 nM, the GI50 [27] was 237 nM and the TGI [27] was 1120 nM. The GI50 [28] was 20.7 nM, the TGI [28] was 39.4 nM and the GI50 [29] was 121 nM. The TGI [29] was 261 nM, the GI50 [30] was 167 nM and the TGI [30] was 755 nM. For the same compound, the GI50 [31] was 108 nM, the TGI [31] was 882 nM and the GI50 [32] was 65.6 nM. For the same compound, the TGI [32] was 416 nM, the GI50 [33] was 35.8 nM and the TGI [33] was 157 nM. It also gave a GI50 [34] of 110 nM, a TGI [34] of 440 nM and a GI50 [35] of 157 nM. For the same compound, the TGI [35] was 587 nM, the GI50 [36] was 94.6 nM and the TGI [36] was 240 nM.
Compound `O=C1/C(=C/c2ccc(Cl)cc2)COc2ccc(O)c(O)c21` has a GI50 [1] of 1430 nM and a TGI [1] of 3.22 µM.
With `COC(=O)[C@@]1(O)C[C@H]2O[C@]1(C)n1c3ccccc3c3c4c(c5c6ccccc6n2c5c31)C(=O)NC4` the GI50 [1] was 1340 nM and the TGI [1] was 3.06 µM.
`COc1ccc(/C=C/C(=O)c2cc3c(N)c(C(=O)Nc4ccccc4)sc3nc2C)cc1` was tested, and the GI50 [1] was 179 nM and the TGI [1] was over 41.7 µM.
`OC(CNC1CCCC1)Cn1c2ccccc2c2ccccc21` (centres undefined) was tested, and the GI50 [1] was 40700 nM and the TGI [1] was over 100 µM.
`COc1ccc([C@H]2[C@H](O)C(=O)N2c2cc(OC)c(OC)c(OC)c2)cc1Cl` gave a GI50 [1] of under 10 nM and a TGI [1] of over 100 µM.
`CCC(C)[C@H]1C(=O)O[C@H](C(C)C)C(=O)N(C)[C@@H](C(C)C)C(=O)O[C@H](C(C)C)C(=O)N(C)[C@@H](C(C)C)C(=O)O[C@H](C(C)C)C(=O)N1C` (some centres undefined) showed a GI50 [1] of 542 nM and a TGI [1] of over 10 µM.
`N#CC1=C(N)Oc2c(sc3c(F)cccc23)C1c1ccc(F)cc1` (centres undefined) was tested, and the GI50 [1] was 452 nM and the TGI [1] was 15.4 µM.
With `O=C(N/N=C\c1ccc(N(CCCl)CCCl)cc1Cl)c1cccnc1` the GI50 [1] was 45.8 nM and the TGI [1] was 0.328 µM.
